Experimental data reported in US10752595B2, “Crystalline forms of a bromodomain and extraterminal protein inhibitor drug, processes for preparation thereof, and use thereof” (Crystal Pharmaceutical (Suzhou) Co., Ltd., priority 2016, dated 2020).
In brackets after ≈: the same amount, converted by molar mass. Entries after “also recorded” stand apart in the source; their conditions may differ.

What was measured:
[1] = Solubility study: saturated solutions in SGF and FeSSIF, concentration by HPLC; type: physicochemical; conditions: for Solubility FeSSIF: FeSSIF (fed state simulated intestinal fluids, pH=5.0); for Solubility SGF: SGF (simulated gastric fluids)
Text: High Performance Liquid Chromatography (HPLC) data in the present disclosure were collected from an Agilent 1260 with Diode Array Detector (DAD). The HPLC method parameters for purity test in the present disclosure are as follows: • 1. Column: Waters XBridge C18 150×4.6 mm, 5 μm • 2. Mobile Phase: A: 0.1% TFA in H2O • B: 0.1% TFA in Acetonitrile
The prepared apabetalone Form CS2 was suspended into SGF (simulated gastric fluids) and FeSSIF (fed state simulated intestinal fluids, pH=5.0) to obtain saturated solutions. After being equilibrated for 1 h and 24 h, concentrations of the saturated solutions were measured by HPLC.
The prepared Form CS8 was suspended into SGF (simulated gastric fluids) and FeSSIF (fed state simulated intestinal fluids, pH=5.0) to obtain saturated solutions. After being equilibrated for 1 h, concentrations of the saturated solutions were measured by HPLC.
The prepared Form CS13 was suspended into SGF (simulated gastric fluids) and FeSSIF (fed state simulated intestinal fluids, pH=5.0) to obtain saturated solutions. After being equilibrated for 1 h, 4 h and 24 h, concentrations of the saturated solutions were measured by HPLC.
The prepared apabetalone Form CS20 was suspended into SGF (simulated gastric fluids) and FeSSIF (fed state simulated intestinal fluids, pH=5.0) to obtain saturated solutions. After being equilibrated for 1 h, 4 h and 24 h, concentrations of the saturated solutions were measured by HPLC.
The prepared solid of apabetalone Form CS1 was suspended into SGF (simulated gastric fluids) and FeSSIF (fed state simulated intestinal fluids, pH=5.0) to obtain saturated solutions. After being equilibrated for 1 h, 4 h and 24 h, concentrations of the saturated solutions were measured by HPLC.
The prepared solid of apabetalone Form CS7 was suspended into SGF (simulated gastric fluids) and FeSSIF (fed state simulated intestinal fluids, pH=5.0) to obtain saturated solutions. After being equilibrated for 1 h, 4 h and 24 h, concentrations of the saturated solutions were measured by HPLC.
The prepared solid of apabetalone Form CS9 was suspended into SGF (simulated gastric fluids) and FeSSIF (fed state simulated intestinal fluids, pH=5.0) to obtain saturated solutions. After being equilibrated for 1 h, 4 h and 24 h, concentrations of the saturated solutions were measured by HPLC.
The prepared solid of apabetalone Form CS11 was suspended into SGF (simulated gastric fluids) and FeSSIF (fed state simulated intestinal fluids, pH=5.0) to obtain saturated solutions. After being equilibrated for 1 h, 4 h and 24 h, concentrations of the saturated solutions were measured by HPLC.
The prepared solid of apabetalone Form CS4 was suspended into SGF (simulated gastric fluids) and FeSSIF (fed state simulated intestinal fluids, pH=5.0) to obtain saturated solutions. After being equilibrated for 1 h, 4 h and 24 h, concentrations of the saturated solutions were measured by HPLC.

[2] = Stability study: open-dish storage in constant temperature and humidity chambers, XRPD and purity check; type: physicochemical; conditions: for Form change and purity decrease after storage / Purity after storage: open dish
Experimental: Form CS8 was placed in a constant temperature and humidity chamber at 25° C./60% RH for 2 weeks in open dish. Crystalline form of the sample were tested by XRPD and impurity of the sample were checked. […] Crystalline form of the sample were tested by XRPD and impurity of the sample were checked. […] Two samples of apabetalone Form CS1 were placed in constant temperature and humidity chambers at 25° C./60% RH and 40° C./75% RH for 10 months in open dishes. The samples were characterized by XRPD and chemical impurity. […] Three samples of apabetalone Form CS7 were placed in constant temperature and humidity chambers at 25° C./60% RH and 40° C./75% RH for 4 weeks and 80° C. for 1 day in open dishes. Crystalline form of the sample were tested by XRPD and impurity of the sample were checked. […] Two samples of apabetalone Form CS9 were placed in constant temperature and humidity chambers at 25° C./60% RH and 40° C./75% RH for 10 months in open dishes. Crystalline form of the sample were tested by XRPD and impurity of the sample were tested to check the stability of Form CS9. […] Two samples of apabetalone Form CS11 were placed in constant temperature and humidity chambers at 25° C./60% RH and 40° C./75% RH for 6 weeks in open dishes. Crystalline form of the sample were tested by XRPD and impurity of the sample were tested to check the stability of Form CS11. […] Two samples of apabetalone Form CS4 were placed in open dishes in constant temperature and humidity chambers at 25° C./60% RH and 40° C./75% RH for 10 months. Crystalline form of the sample were tested by XRPD and impurity of the sample were tested to check the stability of Form CS4.

[3] = Hygroscopicity by dynamic vapor sorption (DVS); type: physicochemical; conditions: for Hygroscopicity class: Chinese Pharmacopoeia 2015 criteria, 80% RH; for Hygroscopicity class / Weight Gain under 80% Relative Humidity: 25° C.; for Weight Gain under 80% Relative Humidity: DVS, about 10 mg of sample; for Form change after DVS test (XRPD): XRPD before and after DVS test
Experimental: Dynamic Vapor Sorption (DVS) was measured via a SMS (Surface Measurement Systems Ltd.) intrinsic DVS instrument. Its control software is DVS—Intrinsic control software, and its analysis software is DVS—Intrinsic Analysis software. Typical Parameters for DVS test are as follows: • Temperature: 25° C. • Gas and flow rate: N2, 200 mL/min • dm/dt: 0.002%/min • RH range: 0% RH to 95% RH Dynamic vapor sorption (DVS) was applied to test hygroscopicity of Form CS8 in the present disclosure with about 10 mg of sample. […] Dynamic vapor sorption (DVS) was applied to test hygroscopicity of Form CS1 of the present disclosure with about 10 mg of sample. […] Dynamic vapor sorption (DVS) was applied to test hygroscopicity of Form CS7 of the present disclosure with about 10 mg of samples. Dynamic vapor sorption (DVS) was applied to test hygroscopicity of Form CS9 of the present disclosure with about 10 mg of sample. […] Dynamic vapor sorption (DVS) was applied to test hygroscopicity of Form CS4 of the present disclosure with about 10 mg of sample.

[4] = Mechanical stability: manual grinding for 5 minutes, XRPD; type: physicochemical; conditions: ground manually in a mortar for 5 minutes
Experimental: Certain amount of Form CS1 was placed in a mortar and ground manually for 5 minutes. XRPD of the solid obtained was tested. Certain amount of Form CS4 was placed in a mortar and ground manually for 5 minutes. Crystalline form of the sample was checked by XRPD.

[5] = Dissolution test of Form CS1 capsule; type: physicochemical; conditions: capsule with 50 mg API; HCl (0.1 mol/L), paddle, 900 mL, 75 rpm, 37° C.; at 20 minutes
Experimental: Certain amount of the API, microcrystalline cellulose, croscarmellose sodium according to Table 5.8 and 2 mg of magnesium stearate were weighted and blended for 2 minutes. Flakes were prepared using a manual tablet press at 5 KN pressure with a φ20 mm round tooling. The crushed flakes were manually sieved through 20 mesh sieve. 2 mg of magnesium stearate was added, and then the obtained powder was blended for 1 minute. The mixture was encapsulated into a 1# capsule shell, then the capsule was packed in 35 cc HDPE (high density polyethylene) bottle (one capsule per bottle) containing 1 g of desiccant. The bottle was then sealed by sealing machine. […] Dissolution test was performed on the obtained capsule. The conditions are as follows: Medium: HCl (0.1 mol/L) Method: Paddle Volume: 900 mL Speed: 75 rpm Temperature: 37° C.

[6] = Formulation study: form stability in the capsule preparation; type: physicochemical; conditions: capsule with microcrystalline cellulose, croscarmellose sodium, magnesium stearate
Experimental: Certain amount of the API, microcrystalline cellulose, croscarmellose sodium according to Table 5.8 and 2 mg of magnesium stearate were weighted and blended for 2 minutes. Flakes were prepared using a manual tablet press at 5 KN pressure with a φ20 mm round tooling. The crushed flakes were manually sieved through 20 mesh sieve. 2 mg of magnesium stearate was added, and then the obtained powder was blended for 1 minute. The mixture was encapsulated into a 1# capsule shell, then the capsule was packed in 35 cc HDPE (high density polyethylene) bottle (one capsule per bottle) containing 1 g of desiccant. The bottle was then sealed by sealing machine.

[7] = target: BRD4 of BET family (Homo sapiens, UniProt O60885); conditions: background statement, regulates ApoA-1 expression; cited from earlier work

| SMILES | Solubility FeSSIF ([1]; equilibrated 1 h) | Solubility FeSSIF ([1]; equilibrated 4 h) | Solubility FeSSIF ([1]; equilibrated 24 h) | Solubility SGF ([1]; equilibrated 1 h) | Solubility SGF ([1]; equilibrated 4 h) | Solubility SGF ([1]; equilibrated 24 h) | Time the form is stable when stored ([2]; 25° C./60% RH) | Form change and purity decrease after storage ([2]; 25° C./60% RH, 10 months) | Purity after storage ([2]; 25° C./60% RH, 1 week) | Purity after storage ([2]; 25° C./60% RH, 2 weeks) | Purity after storage ([2]; 25° C./60% RH, 10 months) | Time the form is stable when stored ([2]; 40° C./75% RH) | Form change and purity decrease after storage ([2]; 40° C./75% RH, 10 months) | Purity after storage ([2]; 40° C./75% RH, 1 week) | Purity after storage ([2]; 40° C./75% RH, 2 weeks) | Purity after storage ([2]; 40° C./75% RH, 10 months) | Hygroscopicity class [3] | Weight Gain under 80% Relative Humidity [3] | Form change after DVS test (XRPD) [3] | Form change and crystallinity decrease after manual grinding (XRPD) [4] | other results |
| --- | --- | --- | --- | --- | --- | --- | --- | --- | --- | --- | --- | --- | --- | --- | --- | --- | --- | --- | --- | --- | --- |
| COc1cc(OC)c2c(=O)[nH]c(-c3cc(C)c(OCCO)c(C)c3)nc2c1 [Form CS1, 2-[4-(2-hydroxyethoxy)-3,5-dimethylphenyl]-5,7-dimethoxyquinazolin-4(3H)-one] | 140 µg/mL (≈ 378 µM) | 110 µg/mL (≈ 297 µM) | 140 µg/mL (≈ 378 µM) | 310 µg/mL (≈ 837 µM) | 290 µg/mL (≈ 783 µM) | 330 µg/mL (≈ 891 µM) | at least 10 months | No form change and obvious purity decrease | 99.27 | 99.23 | 99.24 | at least 10 months | No form change and obvious purity decrease | 99.20 | 99.20 | 99.21 | almost non hygroscopic | 0.13% | No form change; also recorded: doesn't change | no form change and obvious crystallity decrease; also recorded: doesn't change after manual grinding | Purity after storage ([2]; 25° C./60% RH, 5 weeks): 99.25; Purity after storage ([2]; 40° C./75% RH, 5 weeks): 99.25; Released amount in dissolution test [5]: more than 90%; Stability of the form in the preparations [6]: stable in the preparations |
| COc1cc(OC)c2c(=O)[nH]c(-c3cc(C)c(OCCO)c(C)c3)nc2c1 [apabetalone, 2-[4-(2-hydroxyethoxy)-3,5-dimethylphenyl]-5,7-dimethoxyquinazolin-4(3H)-one] |  |  |  |  |  |  |  |  |  |  |  |  |  |  |  |  |  |  |  |  | Inhibition of BRD4 [7]: can inhibit BRD4 |
| COc1cc(OC)c2c(=O)[nH]c(-c3cc(C)c(OCCO)c(C)c3)nc2c1 [Form CS4, 2-[4-(2-hydroxyethoxy)-3,5-dimethylphenyl]-5,7-dimethoxyquinazolin-4(3H)-one] | 140 µg/mL (≈ 378 µM) | 100 µg/mL (≈ 270 µM) | 160 µg/mL (≈ 432 µM) | 300 µg/mL (≈ 810 µM) | 280 µg/mL (≈ 756 µM) | 380 µg/mL (≈ 1030 µM) | at least 10 months | No form change and obvious purity decrease | 99.10 | 99.06 | 99.04 | at least 10 months | No form change and obvious purity decrease | 99.10 | 98.99 | 99.02 | almost non hygroscopic | 0.12% | doesn't change; also recorded: No form change | doesn't change after manual grinding; also recorded: no form change and obvious crystalline decrease | Purity after storage ([2]; 25° C./60% RH, 4 weeks): 99.05; Purity after storage ([2]; 40° C./75% RH, 4 weeks): 99.04 |
